Four molecules from patent US7172749B2, “Radiolabeled irreversible inhibitors of epidermal growth factor receptor tyrosine kinase and their use in radioimaging and radiotherapy” (priority 2001, dated 2007) can be followed below.

In data set [1] the target is EGFR-TK (Homo sapiens, UniProt P00533). The experiment in a line: biochemical. The note with it: 3 μM ATP. As to the method:
All the following incubations were performed at room temperature and with constant shaking. […] The final volume for each well was 150 μl.
After removing the unbound m108, the plate was washed and PBS containing 5% milk (1% fat) was added for the blocking (25 minutes).
One aliquot of A431 cell lysate was thawed and added to the plate.
After 25 minutes, and without washing the plate, ATP/MnCl2 solution was added in each well. The final concentration was 3 μM ATP/5 mM MnCl2. In this step the temperature was kept at 26° C. and the plate was under constant shaking. The incubation with ATP/MnCl2 was for 5 minutes.
Then, to stop the phosphorylation reaction, EDTA was added (pH 8, final concentration in each well 20 mM) and after 1 minute all the plate was washed.
Afterward, polyclonal anti-phosphotyrosine serum (Sugen, Inc.) was added (dilution of antibody in TBST containing 5% milk). The incubation was for 45 minutes.

Data set [2] deals with EGFR autophosphorylation in intact A431 cells (Homo sapiens, UniProt P00533). The experiment in a line: EGFR autophosphorylation inhibition rate measurements in intact A431 cells. In kind it is cell-based. The note with it: 30 nM inhibitor. As to the method:
A431 cells (10^6) were seeded in 6-well plates and grown to 60–80% confluence in DMEM (high glucose) containing 10% fetal calf serum (FCS) and antibiotics at 37° C.
After the incubation, the medium was replaced with an inhibitor/FCS-free medium, the cells were kept at 37° C. for either 1 or 8 hours, stimulated thereafter with EGF and lysated as described hereinabove. The protein determination assay was then performed once with n=1 for each time point of the 1 hour post-incubation set of cells left, and with n=2 (for each time point) for the 8 hours post-incubation set of cells.
The strips were then washed (3×15 minutes) with fading solution (20% MeOH, 7% acetic acid) and dried.
For visualization of molecular weight bands, the membrane was immersed in Ponceau reagent (0.05% Ponceau, 5% acetic acid) for a few minutes, and then washed twice with TTN (10 mM Tris pH 7.4, 0.2% TWEEN 20, 170 mM NaCl) and once with water. The membrane was blocked overnight in TTN containing 5% milk (1% fat) (blocking TTN) and incubated for 90 minutes with PY20 antiphosphotyrosine antibody (Santa Cruz Biotechnology Inc., Santa Cruz, USA) diluted 1:2,000 in blocking TTN.

Data set [3] addresses EGFR-TK autophosphorylation in intact A431 cells (Homo sapiens, UniProt P00533). The experiment in a line: cell-based.
Protocol: Autophosphorylation Inhibition Experiments in Intact A431 Cells:
A431 cells (10^6) were seeded in 6-well plates and grown to 60–80% confluence in DMEM (high glucose) containing 10% fetal calf serum (FCS) and antibiotics at 37° C. The cells were then exposed to serum-free medium, at 37° C., for 18 hours.
Irreversibility assay: Variable concentrations of the inhibitor, ranging from 0.05 nM to 50 nM, were added to A431 cells for 2 hours incubation. The inhibitor was diluted in vehicle/DMSO and the final concentration of DMSO was 0.05% in each well). The medium was replaced thereafter with an inhibitor/FCS-free medium and the cells were left for either 2 or 8 hours, at 37° C. During the 8 hours period, the medium was changed three more times. After the post-incubation period, the cells were stimulated with EGF (20 ng/ml) for 5 minutes and then washed with PBS. Whole-cell lysates were obtained by scraping the cells into the well with 0.4 ml of Leammli buffer (10% glycerol, 3% sodium dodecyl sulfate, 5% b-mercaptoethanol, 50 mM Tris pH 6.8) that contained 0.001% bromophenol blue, and boiling for 5 minutes.
Western blots: Identical protein amounts from each lysate sample were loaded onto polyacrylamide gel (6% or 10%), separated by electrophoresis (Hoefer Pharmacia Diotech Inc., San Francisco, USA) and transferred to nitrocellulose membrane (power supply: EPS 500/400, Amersham Pharmacia Biotech; nitrocellulose extra blotting membranes: Sartorius A G, Goettingen, Germany). A standard high molecular weight solution was loaded as a reference. For visualization of molecular weight bands, the membrane was immersed in Ponceau reagent (0.05% Ponceau, 5% acetic acid) for a few minutes, and then washed twice with TTN (10 mM Tris pH 7.4, 0.2% TWEEN 20, 170 mM NaCl) and once with water. The membrane was blocked overnight in TTN containing 5% milk (1% fat) (blocking TTN) and incubated for 90 minutes with PY20 antiphosphotyrosine antibody (Santa Cruz Biotechnology Inc., Santa Cruz, USA) diluted 1:2,000 in blocking TTN. The membrane was then washed with TTN (3×5 minutes), incubated for 90 minutes with a horseradish peroxidase-conjugated secondary antibody (Goat anti-mouse IgG H+L, Jackson ImResearch Laboratories, Inc, diluted 1:10,000 in blocking TTN), and finally washed again with TTN (3×5 minutes). The membrane was incubated in a luminol-based solution (1 minute, 0.1 M Tris pH 8.5, 250 μM luminol, 400 μM p-cumaric acid, 0.033% H2O2) and visualized using chemiluminescent detection.
Quantification of the EGFR-P (protein) bands density obtained was performed using Adobe Photoshop 5.0ME and NIH image 1.16/ppc programs.
The test system of data set [4] is A431 tumor. Description: Positron Emission Tomography studies in tumor bearing nude rats. It is filed as in vivo, rat. The settings on record: for bladder excretion (PET coronal views): FIG. 12. The procedure: (§1) WAG rnu/rnu male rats (300–400 grams) were injected s.c. in the left or right hind limb, or in the neck, with A431 cells (1×10^7 in 200 μl sterile PBS). Tumor growth was monitored every 2–3 days by calipers. One to two weeks after inoculation, the rats were ready to be used in the following in-vivo biodistribution, metabolic and PET studies. Tumor mass ranging between 2 and 3 grams were used in these experiments.
Positron Emission Tomography studies: Preliminary dynamic PET scans were performed on a Positron Corporation HZL/R scanner (intrinsic spatial resolution: in-plane 5.8 mm, axial 6.3 mm). Rats were anaesthetized with pentothal (85 mg/Kg) and placed supine on a flat polystyrene foam support with feet taped to the support, so as to minimize movements. […] The PET data were normalized for variations in detector sensitivity, and corrected for wobble, randoms, scatter and deadtime. Attenuation correction was applied using the measured transmission scan data. PET images of the Posicam system (Positron Corporation) were reconstructed by filtered back-projection using a Butterworth filter (cut-off 0.2 cycles/mm, order 10). […] These experiments were conducted with the same rats, two days after the first set of experiments.

The test system of data set [5] is A431 tumor. Description: Biodistribution in tumor (A431) bearing rats. The note with it: for tumor/blood ratios: data not shown; for course of tumor uptake with time / tumor uptake: tumor (A431) bearing rats. In kind it is in vivo, rat. The procedure: as §1, with “experiments. Biodistribution: […] Animals were sacrificed at specific time points (between 0 and 1 hour) by means of CO2 asphyxiation. Blood and certain organs and tissues including tumors were collected or excised, counted in a gamma-counter and weighed. % ID/organ, % ID/gram of tissue and tissue/blood uptake ratios were calculated.” for “experiments.”

Data set [6] can be described thus: Biological stability (metabolism) in blood, liver and tumor of rats. In kind it is in vivo, rat. As to the method:
as §1, with “experiments. Biological Stability: […] In general, control rats were injected with the radiolabeled compounds and sacrificed at several time points. […] Ether was then added and the samples were counted in a gamma-counter. Blood, homogenized liver and tumor samples were extracted and the extracted fractions were measured for activity in a gamma-counter, spotted onto TLC, and the radioactivity was detected with phosphor imaging plates.” for “experiments.”

Data set [7] deals with A431 cells. Description: Specific binding measurements in intact A431 cells. More on the design: species or system human. The procedure:
Specific Binding Measurements in Intact A431 Cells: […] After incubation, cells were harvested with a cell harvester (Brandel […], model […], Brandel, Gaithersburg, Md., USA) and were counted in a gamma-counter (1480 WizardTM 3''). The specific binding of the radiolabeled inhibitor was calculated by subtracting the radioactivity level of cells pre-incubated with the non-labeled inhibitor from the radioactivity level of cells pre-incubated with the vehicle only.

In general, IC50 refers to the point on the concentration scale where inhibition reaches its midpoint.

Like-named read-outs stand apart in the source and are kept apart here.

Chain of EGFR-TK autophosphorylation in intact A431 cells (P00533 25-1210): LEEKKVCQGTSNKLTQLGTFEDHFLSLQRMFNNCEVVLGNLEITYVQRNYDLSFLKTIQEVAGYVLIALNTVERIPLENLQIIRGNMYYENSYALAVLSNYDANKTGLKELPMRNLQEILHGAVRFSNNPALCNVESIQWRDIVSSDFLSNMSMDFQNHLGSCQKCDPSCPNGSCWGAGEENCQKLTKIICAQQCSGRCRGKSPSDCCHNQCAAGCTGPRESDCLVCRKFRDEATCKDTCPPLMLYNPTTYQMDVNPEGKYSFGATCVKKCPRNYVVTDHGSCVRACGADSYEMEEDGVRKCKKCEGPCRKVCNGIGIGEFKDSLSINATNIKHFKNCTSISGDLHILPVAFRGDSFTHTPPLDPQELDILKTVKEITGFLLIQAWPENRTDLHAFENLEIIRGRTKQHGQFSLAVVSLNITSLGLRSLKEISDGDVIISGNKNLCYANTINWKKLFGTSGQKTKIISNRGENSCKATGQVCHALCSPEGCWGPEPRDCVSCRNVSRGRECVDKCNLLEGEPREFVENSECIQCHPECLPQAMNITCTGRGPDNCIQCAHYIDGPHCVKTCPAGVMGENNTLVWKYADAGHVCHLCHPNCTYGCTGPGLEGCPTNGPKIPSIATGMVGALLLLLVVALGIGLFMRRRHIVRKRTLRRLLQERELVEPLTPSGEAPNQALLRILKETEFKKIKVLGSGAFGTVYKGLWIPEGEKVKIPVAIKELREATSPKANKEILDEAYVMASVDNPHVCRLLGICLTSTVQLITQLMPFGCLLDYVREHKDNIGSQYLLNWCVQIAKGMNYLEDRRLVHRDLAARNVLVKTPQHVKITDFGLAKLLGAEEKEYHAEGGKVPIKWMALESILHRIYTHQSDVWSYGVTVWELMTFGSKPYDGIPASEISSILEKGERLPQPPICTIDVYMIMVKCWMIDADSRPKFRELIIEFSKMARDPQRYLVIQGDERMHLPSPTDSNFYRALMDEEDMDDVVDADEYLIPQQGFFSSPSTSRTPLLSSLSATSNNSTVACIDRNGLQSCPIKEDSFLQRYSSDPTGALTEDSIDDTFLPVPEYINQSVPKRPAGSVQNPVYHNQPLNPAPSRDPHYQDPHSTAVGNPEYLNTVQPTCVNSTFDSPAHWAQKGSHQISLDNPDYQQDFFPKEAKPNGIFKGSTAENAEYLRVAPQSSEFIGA
Chain of EGFR autophosphorylation in intact A431 cells (P00533 25-1210): as above
Chain of EGFR-TK (P00533 25-1210): as above

On to `C=CC(=O)Nc1ccc2ncnc(Nc3cc(Cl)c(Cl)cc3F)c2c1` [Compound 3, N-{4-[(3,4-dichloro-6-fluorophenyl)amino]quinazoline-6-yl}acrylamide], for which the 50% inhibitory concentration (IC50) in data set [1] (IC50app of an exemplary dose-response autophosphorylation inhibition curve, single exemplary curve (FIG. 1 / FIG. 5), r2 0.995) was determined as 0.051 nM; in data set [1] (apparent IC50 average (IC50app), EGFR-TK autophosphorylation, average of 4 independent dose-response curves (n=4), spread ±0.016), 0.042 nM. Besides, the “inhibition of EGFR autophosphorylation” value in data set [2] (9 minutes incubation time, 1 hour post-incubation (FIG. 4), compared with the 80% inhibition of FIG. 3) is “same effect”. For the same molecule, the inhibition at 0.03 µM in data set [2] (A-431, 10 minutes incubation time, 8 hours post-incubation (FIG. 3)) stood at 80%. Further, the inhibition at 0.0005 µM in data set [3] (A-431, read-out: inhibition of EGFR autophosphorylation, 0.5 nM inhibitor, 2 h incubation, 2 hours in inhibitor/FCS-free media) is around 35%. Moreover, the inhibition at 0.005 µM in data set [3] (A-431, read-out: inhibition of EGFR autophosphorylation, 5 nM inhibitor, 2 h incubation, 2 hours in inhibitor/FCS-free media) worked out at 40%. Also, the inhibition at 0.05 µM is around 100% in data set [3] (A-431, read-out: inhibition of EGFR autophosphorylation, 50 nM inhibitor, 2 h incubation, 2 hours in inhibitor/FCS-free media) and around 97% in data set [3] (A-431, read-out: inhibition of EGFR autophosphorylation, 50 nM inhibitor, 2 h incubation, 8 hours post-incubation).

For the molecule `OC[C@H]1O[C@@H](O)[C@H]([18F])[C@@H](O)[C@@H]1O` [FDG, reference compound], the “bladder excretion (PET coronal views)” value in data set [4] was “excreted in the bladder in great quantities”.

As for `C=CC(=O)Nc1ccc2ncnc(Nc3cc(Cl)c(Cl)cc3F)c2c1` [carbon-11 labeled Compound 3, carbon-11 labeled N-{4-[(3,4-dichloro-6-fluorophenyl)amino]quinazoline-6-yl}acrylamide], the results for the tumor/blood ratios in data set [5] (15 minutes post administration) and in data set [5] (30 minutes post administration) were 0.09 % ID/gram and 0.05 % ID/gram, respectively. Further, in data set [5], the “course of tumor uptake with time” value is given as “decreased with time”. For the same molecule, the “tracer remaining intact in blood” value in data set [6] (15 minutes post injection) is 20%; in data set [6] (45 minutes post injection) it was “no tracer was remained”. The “metabolites in liver and blood (TLC)” value in data set [6] (30 minutes post injection, tumor bearing rats) is “detected”.

For `CN(C)CC=CC(=O)Nc1ccc2ncnc(Nc3cc(Cl)c(Cl)cc3F)c2c1` [carbon-11 labeled Compound 4, carbon-11 labeled N-{4-[(3,4-dichloro-6-fluorophenyl)amino]quinazoline-6-yl}-4-(dimethylamino)-2-butenamide], in data set [7] (A431 cells), the “increase of specific binding as compared to carbon-11 labeled Compound 3” value was determined as 10%. In addition, the “specific binding to A431 cells” value in data set [7] (carbon-11 labeled tracer, non-specific binding from cells pre-incubated with non-labeled inhibitor) is given as 78%. Moreover, the tumor uptake was determined as 0.25 % ID/gram in data set [5] (15 minutes post-administration) and 0.24 % ID/gram in data set [5] (30 minutes post-administration). Further, the “course of tumor uptake with time” value in data set [5] is on record as “remained constant”. Further, the “course of intact tracer in blood with time” value in data set [6] (15 to 45 minutes post injection) was “no substantial reduction with time”. The “tracer remaining intact in blood” value in data set [6] (15 minutes post injection) was found to be 60%. Further, the “metabolites (TLC)” value in data set [6] (60 minutes post injection, tumor bearing rats) is listed as “no metabolites”. Also, the “PET visualization of the tumor” value in data set [4] (250 μCi via jugular vein, dynamic scan) was “visualized throughout a 1-hour scan”. The “bladder excretion (PET coronal views)” value in data set [4] was “slower and minimal bladder excretion”. Further, in data set [4] (PET, alone versus blocked with non-labeled compound), the “specific binding of radiolabeled inhibitor in tumor” value stood at 50%. The “decrease of liver activity uptake” value in data set [4] (during one hour scanning time) is given as 25%. In addition, the “course of activity uptake in the tumor” value in data set [4] (during the first one hour scan) is “remained constant”. Besides, the “tumor uptake of tracer after pre-injection of non-labeled Compound 4” value in data set [4] (non-labeled Compound 4 given 10 minutes before tracer, same rats 2 days later) is “blocked”. In addition, the “total activity uptake in tumor when administered alone as compared with uptake after pre-injecting non-labeled compound” value in data set [4] (time activity curves of the tumor region (FIG. 10)) is “doubled”.
